Among the test systems are DLD-1 colon; DMS 273 small cell lung; HOP-18 NSCLC; LXFL 529 NSCLC; M19-MEL melanoma; RXF-631 renal; SNB-78 CNS; HS 578T breast; MDA-N; SN12K1 renal.
Holding throughout (experiment): inhibition of tumour cell growth, NCI panel, 48 h

Several values for one entry are separate records, joined by “and”; a condition that tells them apart may be missing. Equal entries are not always repeated.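 In this assay, cells in 96-well plates receive the compound at five concentrations for 48 hours. Endpoints are linearly interpolated between the surrounding concentrations. GI50 is the concentration that inhibits growth by half. TGI: concentration producing complete growth inhibition.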

Turning to `CC1(C(=O)O)CCC[C@@]2(C)C1CC[C@@]1(C)c3cocc3CCC21` (stereo partly drawn), the TGI in the test on DLD-1 colon, with DMS 273 small cell lung, with HOP-18 NSCLC, in the test on LXFL 529 NSCLC, with M19-MEL melanoma and in the test on RXF-631 renal was over 100 µM throughout. The same molecule showed a TGI in the test with SNB-78 CNS of over 100 µM.

Consider `O=C(CCc1nc(=S)[nH][nH]1)Nc1cc(Cl)c(Cl)cc1Cl`, for which the TGI with DMS 273 small cell lung, in the test with LXFL 529 NSCLC, in the test with M19-MEL melanoma, in the test on RXF-631 renal and in the test with SNB-78 CNS was over 100 µM throughout.

`Cc1ccc(S(=O)(=O)OC[C@@H]2CO2)cc1`: the TGI in the test with DLD-1 colon, with DMS 273 small cell lung, with HOP-18 NSCLC, in the test with LXFL 529 NSCLC, in the test on M19-MEL melanoma and with RXF-631 renal was over 100 µM in each case. The same molecule gave a TGI in the test on SNB-78 CNS of over 100 µM.

`O=C(O)CCNCCCNCCC(=O)O`: the TGI with DLD-1 colon, with DMS 273 small cell lung, in the test with HOP-18 NSCLC, with LXFL 529 NSCLC, in the test with M19-MEL melanoma and with RXF-631 renal was over 100 µM in each case.

With `O=C(O)CCC(NC(=O)c1ccc(Nc2nc3ccccc3nc2-c2cccs2)cc1)C(=O)O` (stereo not drawn), the TGI in the test on DLD-1 colon, with DMS 273 small cell lung, with HOP-18 NSCLC, with LXFL 529 NSCLC, in the test on M19-MEL melanoma and in the test with RXF-631 renal was over 100 µM in each case. In the test with SNB-78 CNS, the TGI is over 100 µM.

On to `CCCCCCCCCCCCCC(=O)OC(/C=C/C(C)C)C(O)C(O)C(OC)C(=O)NC1CCCCN(C)C1=O` (stereo not drawn), for which the GI50 was over 49 µM in the test on DLD-1 colon; over 49 µM in the test on DMS 273 small cell lung; 6.44 µM in the test with HOP-18 NSCLC; over 49 µM in the test on LXFL 529 NSCLC; over 49 µM with M19-MEL melanoma; over 49 µM with RXF-631 renal. The TGI with DLD-1 colon is 6.56 µM and > 49 µM; with DMS 273 small cell lung it was 4.98 µM and > 49 µM; in the test on HOP-18 NSCLC it was 9.84 µM and > 49 µM; in the test with LXFL 529 NSCLC, 6.89 µM and > 49 µM; in the test on M19-MEL melanoma it was 7.5 µM and > 49 µM; in the test with RXF-631 renal it was 7.52 µM and > 49 µM. The molecule also registered a TGI in the test with SNB-78 CNS of 14.8 µM.

In the case of `O=C(CC(=O)c1cccc2ccccc12)C(=O)Nc1ccc(Cl)cc1`, the TGI in the test with DLD-1 colon, with DMS 273 small cell lung, in the test with HOP-18 NSCLC, with LXFL 529 NSCLC, in the test with M19-MEL melanoma and in the test with RXF-631 renal was over 100 µM in each case. The TGI in the test with SNB-78 CNS was over 100 µM.

Turning to `COc1ccccc1N1C(=O)C2c3[nH]c4ccccc4c3C3CCC(C(C)(C)C)CC3C2C1=O` (stereo not drawn), the TGI in the test on DLD-1 colon, in the test on DMS 273 small cell lung, in the test on HOP-18 NSCLC, in the test on LXFL 529 NSCLC, in the test on M19-MEL melanoma and in the test with SNB-78 CNS was over 100 µM in each case.

Regarding `COC(=O)/C(C#N)=C1\NC(=O)c2ccccc21`, the TGI in the test with DLD-1 colon, in the test with DMS 273 small cell lung, with HOP-18 NSCLC, in the test on LXFL 529 NSCLC, with M19-MEL melanoma and in the test on SNB-78 CNS was over 100 µM throughout.

As to `COc1cc2ccnc([C@@H](OC(=O)c3ccccc3)c3ccc(OC)c(OC)c3OC)c2cc1OC`, the TGI in the test on DLD-1 colon was 80.2 µM; with HOP-18 NSCLC, over 100 µM; in the test with LXFL 529 NSCLC, over 100 µM; in the test with M19-MEL melanoma it was over 100 µM; in the test with RXF-631 renal it was over 100 µM; in the test on SNB-78 CNS, over 100 µM.

In the case of `CCn1c(C)nn2c(=O)c3ccccc3nc2c1=O`, the TGI in the test with DLD-1 colon, with DMS 273 small cell lung, in the test with HOP-18 NSCLC, with LXFL 529 NSCLC, in the test with M19-MEL melanoma and with SNB-78 CNS was over 100 µM in each case.

For the molecule `CCN(CC)CCSc1c2ccccc2nc2cc(NCC(=O)Nc3ccccc3-c3ccccc3NC(=O)CNc3ccc4c(SCCN(CC)CC)c5ccccc5nc4c3)ccc12`, the TGI with DLD-1 colon was over 100 µM; with DMS 273 small cell lung, over 58.3 µM; with HOP-18 NSCLC it was over 100 µM; in the test on LXFL 529 NSCLC, over 100 µM; in the test with M19-MEL melanoma, over 54.7 µM; in the test with RXF-631 renal, over 100 µM.

`O=C(Nc1ccccc1)c1c(O)[nH]c(=S)[nH]c1=O`: the GI50 in the test with DLD-1 colon was 109 µM; in the test on HOP-18 NSCLC, 17.3 µM; in the test with SN12K1 renal, 25.2 µM; in the test with SNB-78 CNS, 97.7 µM. Besides, the TGI was 90 µM and > 250 µM in the test with DLD-1 colon; 78.9 µM in the test with DMS 273 small cell lung; 118 µM and 184 µM in the test on HOP-18 NSCLC; 74.3 µM in the test with HS 578T breast; 118 µM in the test with M19-MEL melanoma; 125 µM in the test with MDA-N. In addition, the TGI is 51.8 µM and 75.1 µM with SN12K1 renal; 124 µM and > 250 µM in the test on SNB-78 CNS.

As to `COC(=O)c1ccccc1NC(=O)C(=O)Cc1nc2c3c(ccc2[nH]c1=O)C(=O)c1ccccc1C3=O`, the TGI is over 100 µM in the test on DLD-1 colon; 58.1 µM in the test on DMS 273 small cell lung; over 100 µM in the test with HOP-18 NSCLC; over 100 µM with LXFL 529 NSCLC; 23.9 µM in the test on M19-MEL melanoma; over 100 µM with RXF-631 renal. Moreover, the TGI in the test on SNB-78 CNS was over 100 µM.

Turning to `Cc1cc(N(CCC#N)CCC#N)ccc1N=Nc1ccc(S(N)(=O)=O)cc1`, the TGI in the test with DLD-1 colon, in the test with DMS 273 small cell lung, with HOP-18 NSCLC, in the test on LXFL 529 NSCLC, in the test on RXF-631 renal and in the test with SNB-78 CNS was over 100 µM in each case.

As to `NC(=O)NO.O.O.O.O.O.O.O.O.O.O.O.[Ge].[Ge].[Ge].[Ge].[Ge].[O]=[Ge].[O]=[Ge].[O]=[Ge].[O]=[Ge].[O]=[Ge][OH]`, the TGI with DLD-1 colon, in the test with DMS 273 small cell lung, in the test on HOP-18 NSCLC, in the test with LXFL 529 NSCLC, with M19-MEL melanoma and in the test on SNB-78 CNS was over 100 µM in each case.

The record behind these values is PubChem BioAssay (NCI).
